Three compounds from patent EP2261259B1, “Immunoassay for N-(3-chlorophenyl)piperazine-based anti-depressants” (Randox Laboratories Ltd., priority 2009, dated 2010) can be followed below.

Converted amounts (≈) assume the structure as drawn.

In this assay the test system is antibody of the invention. The experiment in a line: Competitive ELISA (antibody-coated microtitre plate, hapten-HRP conjugate, TMB, absorbance at 450 nm). The note with it: for %CR: percentage cross-reactivity based on 100% specificity to nefazodone; for %B/B0: B0 = absorbance at 0 ng/ml; for A450: absorbance at 450 nm; for IC50: standard concentration which produces 50% B/B0. It counts as binding, sheep. How it is done: The process of developing an immunoassay is well known to the person skilled in the art. […] The serum from the immunised animal is collected when the antibody titre is sufficiently high. A conjugate is added to a sample containing the target analyte and the raised antibodies, and the conjugate and analyte compete for binding to the antibodies. The process may comprise fixing said serum antibodies to a backing substrate such as a polystyrene solid support or a biochip. The antibodies can be polyclonal or monoclonal. The signal emitted in the immunoassay is proportionate to the amount of conjugate bound to the antibodies which in turn is inversely proportionate to the analyte concentration. The signal can be detected or quantified by comparison with a calibrator.
The resulting immunogens were administered separately to adult sheep on a monthly basis to provide target-specific polyclonal antisera. IgG was extracted from the antisera via Caprylic acid/ammonium sulphate precipitation of immunoglobulin. Microtitre plates (Thermo Scientific, 95029180) were coated with antibody (125µl) in coating buffer (10mM Tris pH 8.5) at 37°C for 2 hours. Antibody was coated at 2.5µg/ml. The plates were then washed. […] The plates were then washed and 125µl of TMB (Randox, 4380-15) was added to each well and left at room temperature for 20mins in the dark. The reaction was stopped using 125µl of 0.2M sulphuric acid. The absorbancies were read at 450nm with an ELISA microplate reader (BIO-TEK Instruments, EL340) and the means calculated. Antibody specificity and sensitivity were then determined
For orientation: ELISA stands for enzyme-linked immunosorbent assay.

Where [1] appears, read: standard concentration 0.156 ng/ml.
The mark [2] stands for this setting: standard concentration 0.313 ng/ml.
Where [3] appears, read: standard concentration 0.625 ng/ml.
Where [4] appears, read: standard concentration 1.250 ng/ml.
Where [5] appears, read: standard concentration 2.500 ng/ml.
The mark [6] stands for this setting: standard concentration 5.000 ng/ml.
Where [7] appears, read: standard concentration 10.000 ng/ml.

One may read the IC50 as the concentration at which inhibition is half-maximal. Lower therefore signals greater potency in that assay. Turning to `CCc1nn(CCCN2CCN(c3cccc(Cl)c3)CC2)c(=O)n1CCOc1ccccc1` [Nefazodone, 2-{3-[4-(3-chlorophenyl)-1-piperazinyl]propyl}-5-ethyl-4-(2-phenoxyethyl)-1,2,4-triazol-3-one], the “%CR” value is listed as 100% and the IC50 was determined as 3.901 ng/mL (≈ 0.0083 µM). For the same compound, under setting [1], the “%B/B0” value amounted to 91% and the A450 stood at 1.850. Under setting [2], the “%B/B0” value is 83% and the A450 came to 1.671. Moreover, under setting [3], the “%B/B0” value amounted to 73% and the A450 is listed as 1.467. Moreover, under setting [4], the “%B/B0” value was found to be 58% and the A450 was 1.168. Under setting [5], the “%B/B0” value turned out to be 46% and the A450 was determined as 0.923. Also, under setting [6], the “%B/B0” value came to 34% and the A450 is 0.683. Moreover, under setting [7], the “%B/B0” value is 24% and the A450 turned out to be 0.494.
Take `O=c1n(CCCN2CCN(c3cccc(Cl)c3)CC2)nc2ccccn12` [Trazodone, 2-{3-[4-(3-chlorophenyl)-1-piperazinyl]propyl}-[1,2,4]triazolo[4,3-a]pyridin-3(2H)-one]: the “%CR” value is recorded as 733%. Under setting [1], the “%B/B0” value is 67% and the A450 stood at 1.456. Also, under setting [2], the “%B/B0” value was determined as 58% and the A450 came to 1.271. Under setting [3], the “%B/B0” value came out at 48% and the A450 amounted to 1.041. Further, under setting [4], the “%B/B0” value is recorded as 35% and the A450 was 0.763. For the same compound, under setting [5], the “%B/B0” value was 25% and the A450 worked out at 0.551. Besides, under setting [6], the “%B/B0” value stood at 18% and the A450 amounted to 0.398. In addition, under setting [7], the “%B/B0” value was 13% and the A450 is 0.287.
In the case of `Clc1cccc(N2CCNCC2)c1` [mCPP, N-(3-chlorophenyl)piperazine], the “%CR” value is listed as 46% and the concentration for half-maximal inhibition (IC50) turned out to be 8.476 ng/mL (≈ 0.0431 µM). Further, under setting [1], the “%B/B0” value was 85% and the A450 was 1.821. Further, under setting [2], the “%B/B0” value came out at 79% and the A450 was determined as 1.679. Also, under setting [3], the “%B/B0” value is on record as 72% and the A450 was 1.534. Further, under setting [4], the “%B/B0” value worked out at 65% and the A450 came out at 1.380. For the same compound, under setting [5], the “%B/B0” value stood at 55% and the A450 was found to be 1.183. Under setting [6], the “%B/B0” value was 48% and the A450 is listed as 1.027. Besides, under setting [7], the “%B/B0” value is recorded as 42% and the A450 came out at 0.888.
